Test results as given in ChEMBL document CHEMBL4020788, “Synthesis, SAR and molecular docking studies of benzo[d]thiazole-hydrazones as potential antibacterial and antifungal agents” (2017).
≈ marks a conversion by molar mass, not a printed value.

Test system: Fusarium verticillioides
Experiment: Antifungal activity against Fusarium moniliforme at 50 ug/ml after 48 hrs by agar well diffusion method
Type: functional
Conditions: read-out: DIZ

Q: Cc1cccc2nc(N/N=C/c3ccc([N+](=O)[O-])cc3[N+](=O)[O-])sc12 was tested. Which zone of inhibition at 50 µg/mL did it give?
A: 24 mm

Test system: Aspergillus niger
Experiment: Antifungal activity against Aspergillus niger at 50 ug/ml after 48 hrs by agar well diffusion method
Type: functional
Conditions: read-out: DIZ

Q: How did the zone of inhibition at 50 µg/mL turn out when Cc1cccc2nc(N/N=C/c3ccc([N+](=O)[O-])cc3[N+](=O)[O-])sc12 was run?
A: 24 mm

Test system: Staphylococcus aureus
Experiment: Antibacterial activity against Staphylococcus aureus at 50 ug/ml after 24 hrs by agar well diffusion method
Type: functional
Conditions: read-out: DIZ

Q: Which zone of inhibition at 50 µg/mL does the source give for Cc1cccc2nc(N/N=C/c3ccc([N+](=O)[O-])cc3[N+](=O)[O-])sc12 here?
A: 9 mm

Test system: Fusarium verticillioides
Experiment: Antifungal activity against Fusarium moniliforme after 48 to 72 hrs by microdilution method
Type: functional
Conditions: not given

Q: With Cc1cccc2nc(N/N=C/c3ccc([N+](=O)[O-])cc3[N+](=O)[O-])sc12 as the molecule, how does the MIC read?
A: 25 µg/mL (≈ 70 µM)

Test system: Escherichia coli
Experiment: Antibacterial activity against Escherichia coli at 25 ug/ml after 24 hrs by agar well diffusion method
Type: functional
Conditions: read-out: DIZ

Q: Which zone of inhibition at 25 µg/mL does the source give for Cc1cccc2nc(N/N=C/c3ccc([N+](=O)[O-])cc3[N+](=O)[O-])sc12 here?
A: 8 mm

Test system: Staphylococcus aureus
Experiment: Antibacterial activity against methicillin resistant Staphylococcus aureus MRSA090 at 25 ug/ml after 24 hrs by agar well diffusion method
Type: functional
Conditions: MRSA090, 24 h, read-out: DIZ

Q: For Cc1cccc2nc(N/N=C/c3ccc([N+](=O)[O-])cc3[N+](=O)[O-])sc12, which zone of inhibition at 25 µg/mL is on record?
A: 8 mm

Test system: Escherichia coli
Experiment: Antibacterial activity against Escherichia coli at 50 ug/ml after 24 hrs by agar well diffusion method
Type: functional
Conditions: read-out: DIZ

Q: Cc1cccc2nc(N/N=C/c3ccc([N+](=O)[O-])cc3[N+](=O)[O-])sc12 was tested. Which zone of inhibition at 50 µg/mL did it give?
A: 13 mm

Test system: Fusarium oxysporum
Experiment: Antifungal activity against Fusarium oxysporum at 25 ug/ml after 48 hrs by agar well diffusion method
Type: functional
Conditions: read-out: DIZ

Q: Cc1cccc2nc(N/N=C/c3ccc([N+](=O)[O-])cc3[N+](=O)[O-])sc12 was tested. Which zone of inhibition at 25 µg/mL did it give?
A: 13 mm

Test system: Aspergillus niger
Experiment: Antifungal activity against Aspergillus niger after 48 to 72 hrs by microdilution method
Type: functional
Conditions: not given

Q: Which MIC does the source give for Cc1cccc2nc(N/N=C/c3ccc([N+](=O)[O-])cc3[N+](=O)[O-])sc12 here?
A: 25 µg/mL (≈ 70 µM)

Test system: Staphylococcus aureus
Experiment: Antibacterial activity against methicillin resistant Staphylococcus aureus MRSA090 at 75 ug/ml after 24 hrs by agar well diffusion method
Type: functional
Conditions: MRSA090, 24 h, read-out: DIZ

Q: How did the zone of inhibition at 75 µg/mL turn out when Cc1cccc2nc(N/N=C/c3ccc([N+](=O)[O-])cc3[N+](=O)[O-])sc12 was run?
A: 16 mm

Test system: Klebsiella pneumoniae
Experiment: Antibacterial activity against Klebsiella pneumoniae at 25 ug/ml after 24 hrs by agar well diffusion method
Type: functional
Conditions: read-out: DIZ

Q: With Cc1cccc2nc(N/N=C/c3ccc([N+](=O)[O-])cc3[N+](=O)[O-])sc12 as the molecule, how does the zone of inhibition at 25 µg/mL read?
A: 5 mm

Test system: Fusarium oxysporum
Experiment: Antifungal activity against Fusarium oxysporum at 75 ug/ml after 48 hrs by agar well diffusion method
Type: functional
Conditions: read-out: DIZ

Q: Cc1cccc2nc(N/N=C/c3ccc([N+](=O)[O-])cc3[N+](=O)[O-])sc12 was tested. Which zone of inhibition at 75 µg/mL did it give?
A: 25 mm

Test system: Fusarium verticillioides
Experiment: Antifungal activity against Fusarium moniliforme at 75 ug/ml after 48 hrs by agar well diffusion method
Type: functional
Conditions: read-out: DIZ

Q: Cc1cccc2nc(N/N=C/c3ccc([N+](=O)[O-])cc3[N+](=O)[O-])sc12 was tested. Which zone of inhibition at 75 µg/mL did it give?
A: 30 mm

Test system: Klebsiella pneumoniae
Experiment: Antibacterial activity against Klebsiella pneumoniae at 100 ug/ml after 24 hrs by agar well diffusion method
Type: functional
Conditions: read-out: DIZ

Q: Cc1cccc2nc(N/N=C/c3ccc([N+](=O)[O-])cc3[N+](=O)[O-])sc12 was tested. Which zone of inhibition at 100 µg/mL did it give?
A: 19 mm

Test system: Fusarium oxysporum
Experiment: Antifungal activity against Fusarium oxysporum at 50 ug/ml after 48 hrs by agar well diffusion method
Type: functional
Conditions: read-out: DIZ

Q: How did the zone of inhibition at 50 µg/mL turn out when Cc1cccc2nc(N/N=C/c3ccc([N+](=O)[O-])cc3[N+](=O)[O-])sc12 was run?
A: 19 mm

Test system: Aspergillus niger
Experiment: Antifungal activity against Aspergillus niger at 100 ug/ml after 48 hrs by agar well diffusion method
Type: functional
Conditions: read-out: DIZ

Q: How did the zone of inhibition at 100 µg/mL turn out when Cc1cccc2nc(N/N=C/c3ccc([N+](=O)[O-])cc3[N+](=O)[O-])sc12 was run?
A: 32 mm

Test system: Staphylococcus aureus
Experiment: Antibacterial activity against Staphylococcus aureus at 100 ug/ml after 24 hrs by agar well diffusion method
Type: functional
Conditions: read-out: DIZ

Q: Which zone of inhibition at 100 µg/mL does the source give for Cc1cccc2nc(N/N=C/c3ccc([N+](=O)[O-])cc3[N+](=O)[O-])sc12 here?
A: 19 mm

Test system: Fusarium verticillioides
Experiment: Antifungal activity against Fusarium moniliforme at 100 ug/ml after 48 hrs by agar well diffusion method
Type: functional
Conditions: read-out: DIZ

Q: Which zone of inhibition at 100 µg/mL does the source give for Cc1cccc2nc(N/N=C/c3ccc([N+](=O)[O-])cc3[N+](=O)[O-])sc12 here?
A: 36 mm

Test system: Escherichia coli
Experiment: Antibacterial activity against Escherichia coli at 100 ug/ml after 24 hrs by agar well diffusion method
Type: functional
Conditions: read-out: DIZ

Q: Which zone of inhibition at 100 µg/mL does the source give for Cc1cccc2nc(N/N=C/c3ccc([N+](=O)[O-])cc3[N+](=O)[O-])sc12 here?
A: 18 mm

Test system: Bacillus subtilis
Experiment: Antibacterial activity against Bacillus subtilis at 100 ug/ml after 24 hrs by agar well diffusion method
Type: functional
Conditions: read-out: DIZ

Q: How did the zone of inhibition at 100 µg/mL turn out when Cc1cccc2nc(N/N=C/c3ccc([N+](=O)[O-])cc3[N+](=O)[O-])sc12 was run?
A: 16 mm

Test system: Staphylococcus aureus
Experiment: Antibacterial activity against methicillin resistant Staphylococcus aureus MRSA090 at 50 ug/ml after 24 hrs by agar well diffusion method
Type: functional
Conditions: MRSA090, 24 h, read-out: DIZ

Q: Cc1cccc2nc(N/N=C/c3ccc([N+](=O)[O-])cc3[N+](=O)[O-])sc12 was tested. Which zone of inhibition at 50 µg/mL did it give?
A: 13 mm

Test system: Bacillus subtilis
Experiment: Antibacterial activity against Bacillus subtilis at 25 ug/ml after 24 hrs by agar well diffusion method
Type: functional
Conditions: read-out: DIZ

Q: Which zone of inhibition at 25 µg/mL does the source give for Cc1cccc2nc(N/N=C/c3ccc([N+](=O)[O-])cc3[N+](=O)[O-])sc12 here?
A: 3 mm

Test system: Klebsiella pneumoniae
Experiment: Antibacterial activity against Klebsiella pneumoniae at 50 ug/ml after 24 hrs by agar well diffusion method
Type: functional
Conditions: read-out: DIZ

Q: With Cc1cccc2nc(N/N=C/c3ccc([N+](=O)[O-])cc3[N+](=O)[O-])sc12 as the molecule, how does the zone of inhibition at 50 µg/mL read?
A: 19 mm

Test system: Aspergillus niger
Experiment: Antifungal activity against Aspergillus niger at 25 ug/ml after 48 hrs by agar well diffusion method
Type: functional
Conditions: read-out: DIZ

Q: Cc1cccc2nc(N/N=C/c3ccc([N+](=O)[O-])cc3[N+](=O)[O-])sc12 was tested. Which zone of inhibition at 25 µg/mL did it give?
A: 21 mm

Test system: Staphylococcus aureus
Experiment: Antibacterial activity against methicillin resistant Staphylococcus aureus MRSA090 at 100 ug/ml after 24 hrs by agar well diffusion method
Type: functional
Conditions: MRSA090, 24 h, read-out: DIZ

Q: Cc1cccc2nc(N/N=C/c3ccc([N+](=O)[O-])cc3[N+](=O)[O-])sc12 was tested. Which zone of inhibition at 100 µg/mL did it give?
A: 18 mm

Test system: Escherichia coli
Experiment: Antibacterial activity against Escherichia coli at 75 ug/ml after 24 hrs by agar well diffusion method
Type: functional
Conditions: read-out: DIZ

Q: For Cc1cccc2nc(N/N=C/c3ccc([N+](=O)[O-])cc3[N+](=O)[O-])sc12, which zone of inhibition at 75 µg/mL is on record?
A: 15 mm

Test system: Bacillus subtilis
Experiment: Antibacterial activity against Bacillus subtilis at 50 ug/ml after 24 hrs by agar well diffusion method
Type: functional
Conditions: read-out: DIZ

Q: For Cc1cccc2nc(N/N=C/c3ccc([N+](=O)[O-])cc3[N+](=O)[O-])sc12, which zone of inhibition at 50 µg/mL is on record?
A: 7 mm

Test system: Bacillus subtilis
Experiment: Antibacterial activity against Bacillus subtilis at 75 ug/ml after 24 hrs by agar well diffusion method
Type: functional
Conditions: read-out: DIZ

Q: How did the zone of inhibition at 75 µg/mL turn out when Cc1cccc2nc(N/N=C/c3ccc([N+](=O)[O-])cc3[N+](=O)[O-])sc12 was run?
A: 12 mm

Test system: Fusarium oxysporum
Experiment: Antifungal activity against Fusarium oxysporum at 100 ug/ml after 48 hrs by agar well diffusion method
Type: functional
Conditions: read-out: DIZ

Q: For Cc1cccc2nc(N/N=C/c3ccc([N+](=O)[O-])cc3[N+](=O)[O-])sc12, which zone of inhibition at 100 µg/mL is on record?
A: 28 mm

Test system: Fusarium oxysporum
Experiment: Antifungal activity against Fusarium oxysporum after 48 to 72 hrs by microdilution method
Type: functional
Conditions: not given

Q: For Cc1cccc2nc(N/N=C/c3ccc([N+](=O)[O-])cc3[N+](=O)[O-])sc12, which MIC is on record?
A: 22 µg/mL (≈ 61.6 µM)

Test system: Fusarium verticillioides
Experiment: Antifungal activity against Fusarium moniliforme at 25 ug/ml after 48 hrs by agar well diffusion method
Type: functional
Conditions: read-out: DIZ

Q: Cc1cccc2nc(N/N=C/c3ccc([N+](=O)[O-])cc3[N+](=O)[O-])sc12 was tested. Which zone of inhibition at 25 µg/mL did it give?
A: 20 mm

Test system: Aspergillus niger
Experiment: Antifungal activity against Aspergillus niger at 75 ug/ml after 48 hrs by agar well diffusion method
Type: functional
Conditions: read-out: DIZ

Q: Which zone of inhibition at 75 µg/mL does the source give for Cc1cccc2nc(N/N=C/c3ccc([N+](=O)[O-])cc3[N+](=O)[O-])sc12 here?
A: 29 mm

Test system: Staphylococcus aureus
Experiment: Antibacterial activity against Staphylococcus aureus at 25 ug/ml after 24 hrs by agar well diffusion method
Type: functional
Conditions: read-out: DIZ

Q: Cc1cccc2nc(N/N=C/c3ccc([N+](=O)[O-])cc3[N+](=O)[O-])sc12 was tested. Which zone of inhibition at 25 µg/mL did it give?
A: 6 mm

Test system: Staphylococcus aureus
Experiment: Antibacterial activity against Staphylococcus aureus at 75 ug/ml after 24 hrs by agar well diffusion method
Type: functional
Conditions: read-out: DIZ

Q: Cc1cccc2nc(N/N=C/c3ccc([N+](=O)[O-])cc3[N+](=O)[O-])sc12 was tested. Which zone of inhibition at 75 µg/mL did it give?
A: 13 mm

Test system: Klebsiella pneumoniae
Experiment: Antibacterial activity against Klebsiella pneumoniae at 75 ug/ml after 24 hrs by agar well diffusion method
Type: functional
Conditions: read-out: DIZ

Q: Cc1cccc2nc(N/N=C/c3ccc([N+](=O)[O-])cc3[N+](=O)[O-])sc12 was tested. Which zone of inhibition at 75 µg/mL did it give?
A: 14 mm
